Test results taken from US7767659B2, “Synthesis of naturally occurring ecteinascidins and related compounds” (Pharma Mar, S.A., priority 2002, dated 2010).

How the values were obtained:
[1] = tested on: A-549; assay: cells; details: Homo sapiens, A549, 48 h
Procedure, shortened: (§1)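 Colorimetric SRB read (490 nm) on triplicate wells after 48 h at 37 °C, 5% CO2. Dose range 10 to 10^−8 μg/ml; 5×10^3 cells/well pre-attached 18 h.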

[2] = tested on: HT-29; assay: cells; details: Homo sapiens, HT-29, 48 h
Procedure, shortened: as §1

[3] = tested on: LoVo; assay: cells; details: Homo sapiens, LoVo, 48 h
Procedure, shortened: as §1

[4] = tested on: DU-145; assay: Inhibition of cells growth by colorimetric assay (SRB); details: Homo sapiens, DU-145, 48 h
Procedure, shortened: as §1

[5] = tested on: HeLa-APL; assay: as above; details: Homo sapiens, 48 h
Procedure, shortened: as §1

[6] = tested on: HeLa; assay: as above; details: Homo sapiens, HeLa, 48 h
Procedure, shortened: as §1

[7] = tested on: IGROV-1; assay: as above; details: Homo sapiens, IGROV-1, 48 h
Procedure, shortened: as §1

[8] = tested on: IGROV-ET; assay: as above; details: Homo sapiens, 48 h
Procedure, shortened: as §1

[9] = tested on: K-562; assay: as above; details: Homo sapiens, K562, 48 h
Procedure, shortened: as §1

[10] = tested on: LNCaP; assay: as above; details: Homo sapiens, LNCaP, 48 h
Procedure, shortened: as §1

[11] = tested on: LoVo-Dox; assay: as above; details: Homo sapiens, 48 h
Procedure, shortened: as §1

[12] = tested on: PANC-1; assay: as above; details: Homo sapiens, PANC-1, 48 h
Procedure, shortened: as §1

[13] = tested on: SK-BR-3; assay: as above; details: Homo sapiens, SK-BR-3, 48 h
Procedure, shortened: as §1

[14] = tested on: SK-MEL-28; assay: as above; details: Homo sapiens, SK-MEL-28, 48 h
Procedure, shortened: as §1

COc1cc2c(cc1O)CCN[C@]21CS[C@@H]2c3c(OC(=O)/C=C/c4ccccc4)c(C)c4c(c3[C@H](COC1=O)N1C2[C@@H]2N[C@@H](Cc3cc(C)c(OC)c(O)c32)[C@@H]1C#N)OCO4 (stereo partly drawn) [compound 51] showed a GI50 ([1]; read-out: A549 GI50) of 2.85 nM, a CC50 ([1]; read-out: A549 LC50) of 542 nM and an IC (TGI) ([1]; read-out: A549 TGI) of 6.59 nM. It also gave a GI50 ([2]; read-out: HT29 GI50) of 5.24 nM, a CC50 ([2]; read-out: HT29 LC50) of 11.8 nM and an IC (TGI) ([2]; read-out: HT29 TGI) of 2.37 µM. The GI50 ([3]; read-out: LOVO GI50) was 3.93 nM, the CC50 ([3]; read-out: LOVO LC50) was 11.8 µM and the IC (TGI) ([3]; read-out: LOVO TGI) was 8.86 nM. It also gave a GI50 ([4]; read-out: DU145 GI50) of 5.24 nM, a CC50 ([4]; read-out: DU145 LC50) of 11.8 µM and an IC (TGI) ([4]; read-out: DU145 TGI) of 0.0163 µM. The GI50 ([5]; read-out: HELA-APL GI50) was 3.49 nM, the CC50 ([5]; read-out: HELA-APL LC50) was 10.9 nM and the IC (TGI) ([5]; read-out: HELA-APL TGI) was 6.18 nM. The GI50 ([6]; read-out: HELA GI50) was 3.43 nM, the CC50 ([6]; read-out: HELA LC50) was 15.5 nM and the IC (TGI) ([6]; read-out: HELA TGI) was 6.63 nM. It also gave a GI50 ([7]; read-out: IGROV GI50) of 3.35 nM, a CC50 ([7]; read-out: IGROV LC50) of 118 µM and an IC (TGI) ([7]; read-out: IGROV TGI) of 6.45 nM. The GI50 ([8]; read-out: IGROV-ET GI50) was 43.6 nM, the CC50 ([8]; read-out: IGROV-ET LC50) was 11.8 µM and the IC (TGI) ([8]; read-out: IGROV-ET TGI) was 0.118 µM. It also gave a GI50 ([9]; read-out: K562 GI50) of 3.15 nM, a CC50 ([9]; read-out: K562 LC50) of 653 nM and an IC (TGI) ([9]; read-out: K562 TGI) of 7.75 nM. It also gave a GI50 ([10]; read-out: LNCAP GI50) of 2.31 nM, a CC50 ([10]; read-out: LNCAP LC50) of 6.82 nM and an IC (TGI) ([10]; read-out: LNCAP TGI) of 3.96 nM. The GI50 ([11]; read-out: LOVO-DOX GI50) was 352 nM, the CC50 ([11]; read-out: LOVO-DOX LC50) was 11.8 µM and the IC (TGI) ([11]; read-out: LOVO-DOX TGI) was 11.8 µM. For the same compound, the GI50 ([12]; read-out: PANC-1 GI50) was 3.53 nM, the CC50 ([12]; read-out: PANC-1 LC50) was 520 nM and the IC (TGI) ([12]; read-out: PANC-1 TGI) was 7.73 nM. The GI50 ([13]; read-out: SK-BR3 GI50) was 5.05 nM, the CC50 ([13]; read-out: SK-BR3 LC50) was 11.8 µM and the IC (TGI) ([13]; read-out: SK-BR3 TGI) was 0.344 µM. The GI50 ([14]; read-out: MEL-28 GI50) was 2.71 nM, the CC50 ([14]; read-out: MEL-28 LC50) was 7.94 nM and the IC (TGI) ([14]; read-out: MEL-28 TGI) was 4.64 nM.
